Data: PubChem BioAssay (NCI)
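All cell lines were grown in 96-well plates and treated with compound for 48 hours. GI50 = concentration required for 50% inhibition of growth. TGI: concentration producing complete growth inhibition.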

What was measured:
Assay in all cases: DTP human tumour cell line panel, 48 h
RPMI-8226 leukemia = test system: RPMI-8226 leukemia
OVCAR-5 ovarian = test system: OVCAR-5 ovarian
EKVX NSCLC = test system: EKVX NSCLC
LOX IMVI melanoma = test system: LOX IMVI melanoma
SR leukemia = test system: SR leukemia
NCI-H226 lung = test system: NCI-H226 lung
786-0 renal = test system: 786-0 renal
NCI-H522 lung = test system: NCI-H522 lung
K-562 leukemia = test system: K-562 leukemia
RXF 393 renal = test system: RXF 393 renal

O=C1C/C(Br)=C\c2ccccc2-c2ccccc21
TGI (RPMI-8226 leukemia): 5.28 µM
TGI (OVCAR-5 ovarian): 6.06 µM
TGI (EKVX NSCLC): 21.8 µM
TGI (LOX IMVI melanoma): 2.43 µM
TGI (SR leukemia): 2.73 µM
TGI (NCI-H226 lung): 8.22 µM
TGI (786-0 renal): 2.91 µM
TGI (NCI-H522 lung): 1.59 µM
TGI (K-562 leukemia): 9.65 µM
TGI (RXF 393 renal): 3.04 µM

CCOc1ccc(NC(=O)CC2SC(=Nc3ccc(C)cc3C)NC2=O)cc1 (centres undefined)
TGI (RPMI-8226 leukemia): > 100 µM
TGI (OVCAR-5 ovarian): > 100 µM
TGI (EKVX NSCLC): > 100 µM
TGI (LOX IMVI melanoma): > 100 µM
TGI (SR leukemia): > 100 µM
TGI (NCI-H226 lung): > 100 µM
TGI (786-0 renal): > 100 µM
TGI (NCI-H522 lung): > 100 µM
TGI (K-562 leukemia): > 100 µM
TGI (RXF 393 renal): > 100 µM

CCSc1nc(N=Cc2ccccc2O)c2cn[nH]c2n1
GI50 (RPMI-8226 leukemia): 23.2 µM
TGI (RPMI-8226 leukemia): > 100 µM
GI50 (OVCAR-5 ovarian): 21.1 µM
TGI (OVCAR-5 ovarian): 66.9 µM
GI50 (EKVX NSCLC): 47.2 µM
TGI (EKVX NSCLC): > 100 µM
GI50 (LOX IMVI melanoma): 30.1 µM
TGI (LOX IMVI melanoma): > 100 µM
GI50 (SR leukemia): 7.31 µM
TGI (SR leukemia): > 100 µM
GI50 (NCI-H226 lung): 17.9 µM
TGI (NCI-H226 lung): 73.9 µM
GI50 (786-0 renal): 41.8 µM
TGI (786-0 renal): > 100 µM
GI50 (NCI-H522 lung): 48.9 µM
TGI (NCI-H522 lung): > 100 µM
GI50 (K-562 leukemia): 41.6 µM
TGI (K-562 leukemia): > 100 µM
GI50 (RXF 393 renal): 12.9 µM
TGI (RXF 393 renal): 44.6 µM

CCOC(=O)c1c(C)c2c(n1Cc1ccccc1)CSCC2=O
GI50 (RPMI-8226 leukemia): 14.4 µM
TGI (RPMI-8226 leukemia): > 100 µM
GI50 (OVCAR-5 ovarian): 20.9 µM
TGI (OVCAR-5 ovarian): 89.1 µM
GI50 (EKVX NSCLC): 16.3 µM
TGI (EKVX NSCLC): > 100 µM
GI50 (LOX IMVI melanoma): 14.8 µM
TGI (LOX IMVI melanoma): 50.9 µM
GI50 (SR leukemia): 7.06 µM
TGI (SR leukemia): > 100 µM
GI50 (NCI-H226 lung): 20.2 µM
TGI (NCI-H226 lung): 89.1 µM
GI50 (786-0 renal): 24.1 µM
TGI (786-0 renal): 63.1 µM
GI50 (NCI-H522 lung): 14.8 µM
TGI (NCI-H522 lung): 58.8 µM
GI50 (K-562 leukemia): 21.7 µM
TGI (K-562 leukemia): > 100 µM
GI50 (RXF 393 renal): 16.2 µM
TGI (RXF 393 renal): 70.6 µM

O=Cc1cc2c(cc1-c1cc3c(cc1C=O)OCO3)OCO2
TGI (RPMI-8226 leukemia): > 100 µM
TGI (OVCAR-5 ovarian): > 100 µM
TGI (EKVX NSCLC): > 100 µM
TGI (LOX IMVI melanoma): 56.3 µM
TGI (SR leukemia): 71 µM
TGI (NCI-H226 lung): > 100 µM
TGI (786-0 renal): > 100 µM
TGI (NCI-H522 lung): > 100 µM
TGI (K-562 leukemia): > 100 µM
TGI (RXF 393 renal): 94.1 µM

COC(=O)C1=CN(CC2=CC(=O)C(C)=CC2=O)C=C(C(=O)OC)C1c1ccccc1OC
GI50 (RPMI-8226 leukemia): 10.3 µM
TGI (RPMI-8226 leukemia): 40.7 µM
GI50 (OVCAR-5 ovarian): 19.7 µM
TGI (OVCAR-5 ovarian): 34.9 µM
GI50 (EKVX NSCLC): 28.8 µM
TGI (EKVX NSCLC): > 100 µM
GI50 (LOX IMVI melanoma): 21.4 µM
TGI (LOX IMVI melanoma): 42.9 µM
GI50 (SR leukemia): 4.01 µM
TGI (SR leukemia): 19.6 µM
GI50 (NCI-H226 lung): 16.4 µM
TGI (NCI-H226 lung): 41.5 µM
GI50 (786-0 renal): 15.1 µM
TGI (786-0 renal): 28.9 µM
GI50 (NCI-H522 lung): 23.7 µM
TGI (NCI-H522 lung): > 64.6 µM
GI50 (K-562 leukemia): 0.495 µM
TGI (K-562 leukemia): 14.9 µM
GI50 (RXF 393 renal): 16.2 µM
TGI (RXF 393 renal): 32.3 µM

O=C(Nc1nc(-c2c[nH]c3ccccc23)cs1)c1n[nH]c(=O)c2ccccc12
GI50 (RPMI-8226 leukemia): 0.957 µM
TGI (RPMI-8226 leukemia): 58.2 µM
GI50 (OVCAR-5 ovarian): 73 µM
TGI (OVCAR-5 ovarian): > 100 µM
GI50 (EKVX NSCLC): 51.3 µM
TGI (EKVX NSCLC): > 100 µM
GI50 (LOX IMVI melanoma): 0.644 µM
TGI (LOX IMVI melanoma): 17.9 µM
GI50 (SR leukemia): 1.61 µM
GI50 (NCI-H226 lung): 12.3 µM
TGI (NCI-H226 lung): 89.8 µM
GI50 (786-0 renal): 1.48 µM
TGI (786-0 renal): > 47.5 µM
GI50 (NCI-H522 lung): 3.26 µM
TGI (NCI-H522 lung): > 58.2 µM
GI50 (K-562 leukemia): 1.27 µM
TGI (K-562 leukemia): > 100 µM
GI50 (RXF 393 renal): 0.446 µM
TGI (RXF 393 renal): 20.7 µM

COc1cc(C[P+](c2ccccc2)(c2ccccc2)c2ccccc2)cc(OC)c1OC
TGI (RPMI-8226 leukemia): > 100 µM
TGI (OVCAR-5 ovarian): > 100 µM
TGI (EKVX NSCLC): > 100 µM
TGI (LOX IMVI melanoma): > 100 µM
TGI (SR leukemia): > 100 µM
TGI (NCI-H226 lung): > 100 µM
TGI (786-0 renal): > 100 µM
TGI (NCI-H522 lung): > 100 µM
TGI (K-562 leukemia): > 100 µM
TGI (RXF 393 renal): > 100 µM

CCCN(CCC)c1c([N+](=O)[O-])cc(C(=O)N(CC)CC)cc1[N+](=O)[O-]
TGI (RPMI-8226 leukemia): 36.3 µM
TGI (OVCAR-5 ovarian): 94.3 µM
TGI (EKVX NSCLC): 61.3 µM
TGI (LOX IMVI melanoma): 30.8 µM
TGI (SR leukemia): 55.2 µM
TGI (NCI-H226 lung): 71.3 µM
TGI (786-0 renal): > 100 µM
TGI (NCI-H522 lung): 28.6 µM
TGI (K-562 leukemia): > 100 µM
TGI (RXF 393 renal): 63 µM
